# Data: patent US9388199B2, “Pyrrolidine derivatives and their use as complement pathway modulators” (priority 2012, dated 2016)
# Biological target: Recombinant human factor D (Homo sapiens (Human), UniProt P00746)
# Assay: Human Complement Factor D Assay: Method 1
# Assay type: biochemical
# Settings: 10 nM factor D, substrate Z-Lys-thiobenzyl, fluorescence readout, read-out: IC50 (μM), Factor D inhibition
# Description: Human Complement Factor D Assay: Method 1
# Recombinant human factor D (expressed in E. coli and purified using standard methods) at 10 nM concentration is incubated with test compound at various concentrations for 1 hour at room temperature in 0.1 M Hepes buffer, pH 7.5, containing 1 mM MgCl2, 1 M NaCl and 0.05% CHAPS. A synthetic substrate Z-Lys-thiobenzyl and 2,4-dinitrobenzenesulfonyl-fluoresceine are added to final concentrations of 200 μM and 25 μM, respectively. The increase in fluorescence is recorded at excitation of 485 nm and emission at 535 nm in a microplate spectrofluorimeter. IC50 values are calculated from percentage of inhibition of complement factor D-activity as a function of test compound concentration.
# Chain of Recombinant human factor D (P00746 26-253): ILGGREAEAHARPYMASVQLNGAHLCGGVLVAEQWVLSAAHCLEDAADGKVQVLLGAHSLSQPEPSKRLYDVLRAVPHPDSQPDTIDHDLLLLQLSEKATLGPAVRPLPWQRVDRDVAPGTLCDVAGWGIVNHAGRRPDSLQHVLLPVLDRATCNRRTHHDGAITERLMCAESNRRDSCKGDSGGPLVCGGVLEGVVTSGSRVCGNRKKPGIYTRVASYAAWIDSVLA
row,Structure (SMILES),IC50 [µM]
1,"C[Si](C)(C)CCNC(=O)[C@@H]1C[C@H]2C[C@H]2N1C(=O)Cn1nc(C(N)=O)c2ccccc21 [Example 28, 1-{2-oxo-2-[(1R,3S,5R)-3-(2-trimethylsilanyl-ethylcarbamoyl)-2-aza-bicyclo[3.1.0]hex-2-yl]-ethyl}-1H-indazole-3-carboxylic acid amide]",0.065
2,"CC(=O)c1nn(CC(=O)N2[C@@H]3C[C@@H]3C[C@H]2C(=O)NCCC(C)(C)C)c2ncccc12 [Example 29, (1R,3S,5R)-2-[2-(3-Acetyl-pyrazolo[3,4-b]pyridin-1-yl)-acetyl]-2-aza-bicyclo[3.1.0] hexane-3-carboxylic acid (3,3-dimethyl-butyl)-amide]",0.227
3,"CC(=O)c1nn(CC(=O)N2[C@@H]3C[C@@H]3C[C@H]2C(=O)NCCC(C)C)c2ncccc12 [Example 30, (1R,3S,5R)-2-[2-(3-Acetyl-pyrazolo[3,4-b]pyridin-1-yl)-acetyl]-2-aza-bicyclo[3.1.0] hexane-3-carboxylic acid (3-methyl-butyl)-amide]",0.324
4,"NC(=O)c1nn(CC(=O)N2[C@@H]3C[C@@H]3C[C@H]2C(=O)NCC(F)F)c2ccccc12 [Example 32, 1-{2-[(1R,3S,5R)-3-(2,2-Difluoro-ethylcarbamoyl)-2-aza-bicyclo[3.1.0]hex-2-yl]-2-oxo-ethyl}-1H-indazole-3-carboxylic acid amide]",0.874
5,"CC(C)(C)C(O)CNC(=O)[C@@H]1C[C@H]2C[C@H]2N1C(=O)Cn1nc(C(N)=O)c2ccccc21 (stereo partly drawn) [Example 33, 1-{2-[(1R,3S,5R)-3-(2-Hydroxy-3,3-dimethyl-butylcarbamoyl)-2-aza-bicyclo [3.1.0]hex-2-yl]-2-oxo-ethyl}-1H-indazole-3-carboxylic acid amide]",0.271
6,"CC(C)(C)C(=O)CNC(=O)[C@@H]1C[C@H]2C[C@H]2N1C(=O)Cn1nc(C(N)=O)c2ccccc21 [Example 34, 1-{2-[(1R,3S,5R)-3-(3,3-Dimethyl-2-oxo-butylcarbamoyl)-2-aza-bicyclo[3.1.0]hex-2-yl]-2-oxo-ethyl}-1H-indazole-3-carboxylic acid amide]",0.192
7,"CC(C)(C)C[C@@H](CO)NC(=O)[C@@H]1C[C@H]2C[C@H]2N1C(=O)Cn1nc(C(N)=O)c2ccccc21 [Example 35, 1-{2-[(1R,3S,5R)-3-((S)-1-Hydroxymethyl-3,3-dimethyl-butylcarbamoyl)-2-aza-bicyclo[3.1.0]hex-2-yl]-2-oxo-ethyl}-1H-indazole-3-carboxylic acid amide]",0.593
8,"C[C@H](CC(C)(C)C)NC(=O)[C@@H]1C[C@H]2C[C@H]2N1C(=O)Cn1nc(C(N)=O)c2ccccc21 [Example 36, 1-{2-Oxo-2-[(1R,3S,5R)-3-((R)-1,3,3-trimethyl-butylcarbamoyl)-2-aza-bicyclo[3.1.0]hex-2-yl]-ethyl}-1H-indazole-3-carboxylic acid amide]",0.113
9,"COC[C@H](CC(C)(C)C)NC(=O)[C@@H]1C[C@H]2C[C@H]2N1C(=O)Cn1nc(C(N)=O)c2ccccc21 [Example 37, 1-{2-[(1R,3S,5R)-3-((S)-1-Methoxymethyl-3,3-dimethyl-butylcarbamoyl)-2-aza-bicyclo[3.1.0]hex-2-yl]-2-oxo-ethyl}-1H-indazole-3-carboxylic acid amide]",0.443
10,"CC(=O)c1nn(CC(=O)N2[C@@H]3C[C@@H]3C[C@H]2C(=O)NCCC(F)(F)F)c2cnccc12 [Example 39, (1R,3S,5R)-2-[2-(3-Acetyl-pyrazolo[3,4-c]pyridin-1-yl)-acetyl]-2-aza-bicyclo [3.1.0]hexane-3-carboxylic acid (3,3,3-trifluoro-propyl)-amide]",5.32
11,"CC(=O)c1nn(CC(=O)N2[C@@H]3C[C@@H]3C[C@H]2C(=O)NCC(O)C(F)(F)F)c2ncccc12 (stereo partly drawn) [Example 40, (1R,3S,5R)-2-[2-(3-Acetyl-pyrazolo[3,4-b]pyridin-1-yl)-acetyl]-2-aza-bicyclo [3.1.0]hexane-3-carboxylic acid (3,3,3-trifluoro-2-hydroxy-propyl)-amide]",10.8
12,"NC(=O)c1nn(CC(=O)N2[C@@H]3C[C@@H]3C[C@H]2C(=O)NCCF)c2ccccc12 [Example 41, 1-{2-[(1R,3S,5R)-3-(2-Fluoro-ethylcarbamoyl)-2-aza-bicyclo[3.1.0]hex-2-yl]-2-oxo-ethyl}-1H-indazole-3-carboxylic acid amide]",1.35
13,"CC(C)(C)C[C@H](CO)NC(=O)[C@@H]1C[C@H]2C[C@H]2N1C(=O)Cn1nc(C(N)=O)c2ccccc21 [Example 42, 1-{2-[(1R,3S,5R)-3-((R)-1-Hydroxymethyl-3,3-dimethyl-butylcarbamoyl)-2-aza-bicyclo[3.1.0]hex-2-yl]-2-oxo-ethyl}-1H-indazole-3-carboxylic acid amide]",5.36
14,"CC(=O)c1nn(CC(=O)N2[C@@H]3C[C@@H]3C[C@H]2C(=O)NCC[Si](C)(C)C)c2cnccc12 [Example 43, (1R,3S,5R)-2-[2-(3-Acetyl-pyrazolo[3,4-c]pyridin-1-yl)-acetyl]-2-aza-bicyclo[3.1.0]hexane-3-carboxylic acid (2-trimethylsilanyl-ethyl)-amide]",0.323
15,"CC(C)(C)C(F)CNC(=O)[C@@H]1C[C@H]2C[C@H]2N1C(=O)Cn1nc(C(N)=O)c2ccccc21 (stereo partly drawn) [Example 44, 1-{2-[(1R,3S,5R)-3-(2-Fluoro-3,3-dimethyl-butylcarbamoyl)-2-aza-bicyclo[3.1.0]hex-2-yl]-2-oxo-ethyl}-1H-indazole-3-carboxylic acid amide]",0.384
